Measured values published in patent publication US20160100579A1, “NEMATICIDAL N-(2-SUBSTITUTED 2-PHENYLETHYL)CARBOXAMIDES AND N-(2-SUBSTITUTED 2-PHENYLETHYL)-THIOCARBOXAMIDES” (priority 2013, published 2016).

Tests used:
[1] = Measurement of log P values by HPLC on reversed phase columns (EEC directive 79/831 Annex V.A8; methods [a] pH 2.3, [b] pH 2.7, [c] pH 7.8); assay type: physicochemical
Procedure: Measurement of log P-values:
Measurement of log P values was performed according EEC directive 79/831 Annex V.A8 by HPLC (High Performance Liquid Chromatography) on reversed phase columns with the following methods:
^[a] Measurement was done at pH 2.3 with 0.1% phosphoric acid and acetonitrile as eluent with a linear gradient from 10% acetonitrile to 95% acetonitrile.
^[b] measurement of LC-MS was done at pH 2.7 with 0.1% formic acid in water and with acetonitrile (contains 0.1% formic acid) as eluent with a linear gradient from 10% acetonitrile to 95% acetonitrile.
^[c] Measurement with LC-MS was done at pH 7.8 with 0.001 molar ammonium hydrogen carbonate solution in water as eluent with a linear gradient from 10% acetonitrile to 95% acetonitrile.
Calibration was done with not branched alkan2-ones (with 3 to 16 carbon atoms) with known log P-values (measurement of log P values using retention times with linear interpolation between successive alkanones).. lambda-maX-values were determined using UV-spectra from 200 nm to 400 nm and the peak values of the chromatographic signals.

Haemonchus contortus = Haemonchus contortus - Test (HAEMCO); assay type: in vivo; details: after 5 days, 100% = all larvae killed
Procedure: Haemonchus contortus—Test (HAEMCO)
Solvent: dimethyl sulfoxide
To produce a suitable preparation of active compound, 10 mg of active compound are dissolved in 0.5 ml solvent, and the concentrate is diluted with “Ringer's solution” to the desired concentration.
Approximately 40 larvae of the red stomach worm (Haemonchus contortus) are transferred into a test tube containing compound solution.
After 5 days percentage of larval mortality is recorded. 100% efficacy means all larvae are killed, 0% efficacy means no larvae are killed.

[2] = method [a]: HPLC, pH 2.3, 0.1% phosphoric acid / acetonitrile
[3] = method [b]: LC-MS, pH 2.7, 0.1% formic acid in water / acetonitrile
[4] = method [c]: LC-MS, pH 7.8, 0.001 molar ammonium hydrogen carbonate / acetonitrile
[5] = method [b]: LC-MS at pH 2.7, 0.1% formic acid in water / acetonitrile
[6] = method [c]: LC-MS at pH 7.8, 0.001 molar ammonium hydrogen carbonate in water / acetonitrile

Row | SMILES | log P [1, 5] | log P [1, 6] | further results
1 | C#CCOC(CNC(=O)c1sccc1C)c1ccc(Cl)cc1 (stereo not drawn) [Compound 1] | – | – | logP [1, 2]: 3.18^[a]; activity (efficacy: larval mortality) (Haemonchus contortus; 100 ppm): 80%
2 | COC(c1ccc(Cl)cc1Cl)C(C)NC(=O)c1cccnc1Cl (stereo not drawn) [Compound 34] | – | – | activity (efficacy: larval mortality) (Haemonchus contortus; 100 ppm): 90%
3 | COC(c1ccc(Cl)cc1Cl)C(C)NC(=O)c1sccc1C (stereo not drawn) [Compound 58] | – | – | logP [1, 3]: 4.05^[b]; logP [1, 4]: 4.02^[c];; activity (efficacy: larval mortality) (Haemonchus contortus; 100 ppm): 80%
4 | COC(c1ccc(Cl)cc1)C(C)NC(=O)c1ccoc1C (stereo not drawn) [Compound 59] | – | – | logP [1, 3]: 3.21^[b]; activity (efficacy: larval mortality) (Haemonchus contortus; 100 ppm): 90%
5 | COC(c1ccc(Cl)cc1)C(C)NC(=O)c1ccsc1Br (stereo not drawn) [Compound 63] | – | – | logP [1, 3]: 3.68^[b]; activity (efficacy: larval mortality) (Haemonchus contortus; 100 ppm): 100%
6 | COC(c1ccc(Cl)cc1)C(C)NC(=O)c1sccc1Cl (stereo not drawn) [Compound 66] | – | – | logP [1, 3]: 3.83^[b]; logP [1, 4]: 3.83^[c];; activity (efficacy: larval mortality) (Haemonchus contortus; 20 ppm): 90%
7 | COC(CNC(=O)c1ccsc1Cl)c1ccc(Cl)cc1 (stereo not drawn) [Compound 70] | – | – | logP [1, 3]: 3.15^[b]; logP [1, 4]: 3.13^[c];; activity (efficacy: larval mortality) (Haemonchus contortus; 100 ppm): 100%
8 | COC(CNC(=O)c1ccoc1I)c1ccc(Cl)cc1 (stereo not drawn) [Compound 71] | – | – | logP [1, 3]: 2.92^[b]; logP [1, 4]: 2.90^[c];; activity (efficacy: larval mortality) (Haemonchus contortus; 100 ppm): 90%
9 | COC(c1ccc(Cl)cc1Cl)C1(NC(=O)c2cccnc2Cl)CC1 (stereo not drawn) [Compound 98] | – | – | logP [1, 3]: 3.00^[b]; activity (efficacy: larval mortality) (Haemonchus contortus; 20 ppm): 80%
10 | COC(CNC(=O)c1nccnc1C(F)(F)F)c1cc(Cl)cc(Cl)c1 (stereo not drawn) [Compound 120] | 3.42^[b] | – | activity (efficacy: larval mortality) (Haemonchus contortus; 20 ppm): 80%
11 | COC(c1ccc(Cl)cc1Cl)C(C)NC(=O)c1ccnn1C(F)F (stereo not drawn) [Compound 123] | 3.09^[b] | – | activity (efficacy: larval mortality) (Haemonchus contortus; 20 ppm): 100%
12 | COC(c1ccc(Cl)cc1Cl)C1(NC(=O)c2c(F)cccc2C(F)(F)F)CC1 (stereo not drawn) [Compound 149] | 4.00^[b] | 3.95^[c]; | –
13 | COC(c1ccc(Cl)cc1Cl)C1(NC(=O)c2c(F)cccc2F)CC1 (stereo not drawn) [Compound 150] | 3.57^[b] | 3.53^[c]; | –
14 | COC(c1ccc(Cl)cc1Cl)C1(NC(=O)c2ccccc2Br)CC1 (stereo not drawn) [Compound 151] | 3.82^[b] | 3.76^[c]; | –
15 | COC(c1ccc(Cl)cc1Cl)C1(NC(=O)c2ccccc2I)CC1 (stereo not drawn) [Compound 152] | 3.92^[b] | 3.88^[c]; | –
16 | COC(c1ccc(Cl)cc1Cl)C1(NC(=O)c2ccccc2C)CC1 (stereo not drawn) [Compound 153] | 3.75^[b] | 3.72^[c]; | –
17 | COC(c1ccc(Cl)cc1Cl)C1(NC(=O)c2ccccc2Cl)CC1 (stereo not drawn) [Compound 154] | 3.76^[b] | 3.71^[c]; | –
18 | COC(c1ccc(Cl)cc1Cl)C1(NC(=O)c2ccccc2F)CC1 (stereo not drawn) [Compound 155] | 3.78^[b] | 3.75^[c]; | –
19 | COC(c1ccc(Cl)cc1Cl)C(C)N(C(=O)c1ncc(Cl)cc1C(F)(F)F)C1CC1 (stereo not drawn) [Compound 159] | 5.39^[b] | – | –

Row | SMILES | log P [1, 5] | log P [1, 6] | further results
20 | COC(CN(C(=O)c1cccnc1C(F)(F)F)C1CC1)c1ccc(Cl)cc1Cl (stereo not drawn) [Compound 166] | 4.16^[b] | – | –
21 | COC(CN(C(=O)c1cccnc1Cl)C1CC1)c1ccc(Cl)cc1Cl (stereo not drawn) [Compound 167] | 3.76^[b] | – | –
22 | COC(CN(C(=O)c1nccnc1C(F)(F)F)C1CC1)c1ccc(Cl)cc1Cl (stereo not drawn) [Compound 168] | 4.37^[b] | – | –
23 | COC(CN(C(=O)C1=C(C)OCCS1)C1CC1)c1ccc(Cl)cc1Cl (stereo not drawn) [Compound 169] | 4.11^[b] | – | –
24 | COC(c1ccc(Cl)cc1Cl)C(C)N(C(=O)c1cccnc1Cl)C1CC1 (stereo not drawn) [Compound 170] | 4.03^[b] | – | –
25 | COC(c1ccc(Cl)cc1Cl)C(C)N(C(=O)c1cccnc1C(F)F)C1CC1 (stereo not drawn) [Compound 171] | 3.92^[b] | – | –
26 | COC(c1ccc(Cl)cc1Cl)C(C)N(C(=O)C1=C(C)OCCS1)C1CC1 (stereo not drawn) [Compound 172] | 4.30^[b] | – | –
27 | COC(c1ccc(Cl)cc1Cl)C(C)N(C(=O)c1cccnc1C(F)(F)F)C1CC1 (stereo not drawn) [Compound 173] | 4.44^[b] | – | –
28 | COC(c1ccc(Cl)cc1Cl)C(C)N(C(=O)c1nccnc1C(F)(F)F)C1CC1 (stereo not drawn) [Compound 174] | 4.69^[b] | – | –
29 | COC(c1ccc(Cl)cc1Cl)C(C)(C)N(C)C(=O)c1ccccc1C(F)(F)F (stereo not drawn) [Compound 182] | 5.42^[b] | 5.34^[c]; | –
30 | C#CCOC(c1ccc(Cl)c(Cl)c1)C(C)(C)NC(=O)c1sccc1C (stereo not drawn) [compound 3] | – | – | logP [1, 2]: 4.58^[a]
31 | C#CCOC(c1ccc(Cl)cc1)C(C)(C)NC(=O)c1sccc1C (stereo not drawn) [compound 4] | – | – | logP [1, 2]: 4.22^[a]
32 | Cc1ccc(COC(CNC(=O)c2sccc2C)c2ccc(Cl)cc2)cc1 (stereo not drawn) [compound 5] | – | – | logP [1, 2]: 4.62^[a]
33 | Cc1ccsc1C(=O)NCC(OCC(C)C)c1ccc(Cl)cc1 (stereo not drawn) [compound 7] | – | – | logP [1, 2]: 4.49^[a]
34 | COC(c1ccc(Cl)cc1Cl)C(C)NC(=O)c1c(C)nn(C)c1F (stereo not drawn) [compound 13] | – | – | logP [1, 3]: 3.13^[b]
35 | COC(c1ccc(Cl)cc1Cl)C(C)NC(=O)c1c(C(F)F)nn(C)c1F (stereo not drawn) [compound 14] | – | – | logP [1, 3]: 3.65^[b]
36 | COC(c1ccc(Cl)cc1Cl)C(C)NC(=O)c1cn(C)nc1C(F)F (stereo not drawn) [compound 17] | – | – | logP [1, 3]: 3.25^[b]
37 | COC(c1ccc(Cl)cc1Cl)C(C)NC(=O)c1c(F)c(C)nn1C(F)F (stereo not drawn) [compound 114] | – | – | logP [1, 3]: 4.57^[b]
38 | COC(c1ccc(Cl)cc1Cl)C(C)NC(=O)c1cc(C)nn1C(F)F (stereo not drawn) [compound 115] | – | – | logP [1, 3]: 3.73^[b]

Continued, in another order:

Row | log P [1, 5] | log P [1, 6] | SMILES | further results
39 | 3.04^[b] | 3.02^[c]; | COC(c1ccc(F)cc1)C(C)NC(=O)c1ccccc1F (stereo not drawn) [Compound 183] | –
40 | 2.25^[b] | 2.23^[c]; | COC(c1ccc(F)cc1)C(C)NC(=O)c1cccnc1Cl (stereo not drawn) [Compound 184] | –
41 | 2.80^[b] | 2.76^[c]; | COC(c1ccc(F)cc1)C(C)NC(=O)c1c(F)cccc1F (stereo not drawn) [Compound 185] | –
42 | 2.99^[b] | 2.95^[c]; | COC(c1ccc(F)cc1)C(C)NC(=O)c1ccccc1Br (stereo not drawn) [Compound 186] | –
43 | 2.91^[b] | 2.86^[c]; | COC(c1ccc(F)cc1)C(C)NC(=O)c1ccccc1C (stereo not drawn) [Compound 188] | –
44 | 3.24^[b] | 3.19^[c]; | COC(c1ccc(F)cc1)C(C)NC(=O)c1c(F)cccc1C(F)(F)F (stereo not drawn) [Compound 189] | –
45 | – | 3.16^[c] | COC(c1ccc(F)cc1)C(C)NC(=O)c1ccccc1C(F)(F)F (stereo not drawn) [Compound 190] | –
46 | 4.55^[b] | 4.53^[c]; | CCOC(c1ccc(Cl)cc1Cl)C(C)NC(=O)c1c(F)cccc1C(F)(F)F (stereo not drawn) [Compound 193] | –
47 | 4.66^[b] | 4.65^[c]; | CCOC(c1ccc(Cl)cc1Cl)C(C)NC(=O)c1ccccc1F (stereo not drawn) [Compound 195] | –
48 | 4.14^[b] | 4.13^[c]; | CCOC(c1ccc(Cl)cc1Cl)C(C)NC(=O)c1c(F)cccc1F (stereo not drawn) [Compound 196] | –
49 | 4.51^[b] | 4.56^[c]; | CCOC(c1ccc(Cl)cc1Cl)C(C)NC(=O)c1ccccc1I (stereo not drawn) [Compound 197] | –
50 | 4.35^[b] | 4.33^[c]; | CCOC(c1ccc(Cl)cc1Cl)C(C)NC(=O)c1ccccc1C (stereo not drawn) [Compound 198] | –
51 | 4.45^[b] | 4.40^[c]; | CCOC(c1ccc(Cl)cc1Cl)C(C)NC(=O)c1ccccc1C(F)F (stereo not drawn) [Compound 199] | –
52 | 4.43^[b] | 4.39^[c]; | CCOC(c1ccc(Cl)cc1Cl)C(C)NC(=O)c1ccccc1Br (stereo not drawn) [Compound 200] | –
53 | 4.35^[b] | 4.39^[c]; | CCOC(c1ccc(Cl)cc1Cl)C(C)NC(=O)c1ccccc1Cl (stereo not drawn) [Compound 201] | –
54 | 4.37^[b] | 4.42^[c]; | CCOC(c1ccc(Cl)cc1Cl)C(C)NC(=O)c1sc(C)nc1C(F)(F)F (stereo not drawn) [Compound 204] | –
55 | 2.89^[b] | 3.03^[c]; | CCOC(c1ccc(Cl)cc1Cl)C(C)NC(=O)c1cccnc1 (stereo not drawn) [Compound 206] | –
56 | 1.94^[b] | 2.09^[c]; | COC(c1ccccc1Cl)C(C)NC(=O)c1cccnc1 (stereo not drawn) [Compound 207] | –
57 | 3.33^[b] | 3.26^[c]; | COC(c1ccc(Cl)cc1Cl)C1(NC(=O)c2ccccc2[N+](=O)[O-])CC1 (stereo not drawn) [Compound 211] | –
58 | 3.34^[b] | 3.31^[c]; | COC(c1ccccc1Cl)C(C)NC(=O)c1sc(C)nc1C(F)(F)F (stereo not drawn) [Compound 212] | –
59 | 3.89^[b] | 3.85^[c]; | CCOC(c1ccc(Cl)cc1Cl)C(C)NC(=O)c1nccnc1Cl (stereo not drawn) [Compound 214] | –
60 | 3.46^[b] | – | COC(c1ccc(Cl)cc1Cl)C1(NC(=O)c2ccnn2C(F)F)CC1 (stereo not drawn) [compound 121] | –
61 | 3.94^[b] | – | COC(c1ccc(Cl)cc1Cl)C1(NC(=O)c2cc([N+](=O)[O-])nn2C(F)F)CC1 (stereo not drawn) [compound 122] | –
62 | 3.08^[b] | – | COC(c1ccc(Cl)cc1Cl)C(C)NC(=O)c1cc(C)nn1C (stereo not drawn) [compound 124] | –
63 | 3.05^[b] | – | COC(c1ccc(Cl)cc1Cl)C1(NC(=O)c2cc(C)nn2C)CC1 (stereo not drawn) [compound 125] | –
